Test [1] deals with T1, FKBP51 (Homo sapiens, UniProt Q13451).
T1 sequence (Q13451 1-457): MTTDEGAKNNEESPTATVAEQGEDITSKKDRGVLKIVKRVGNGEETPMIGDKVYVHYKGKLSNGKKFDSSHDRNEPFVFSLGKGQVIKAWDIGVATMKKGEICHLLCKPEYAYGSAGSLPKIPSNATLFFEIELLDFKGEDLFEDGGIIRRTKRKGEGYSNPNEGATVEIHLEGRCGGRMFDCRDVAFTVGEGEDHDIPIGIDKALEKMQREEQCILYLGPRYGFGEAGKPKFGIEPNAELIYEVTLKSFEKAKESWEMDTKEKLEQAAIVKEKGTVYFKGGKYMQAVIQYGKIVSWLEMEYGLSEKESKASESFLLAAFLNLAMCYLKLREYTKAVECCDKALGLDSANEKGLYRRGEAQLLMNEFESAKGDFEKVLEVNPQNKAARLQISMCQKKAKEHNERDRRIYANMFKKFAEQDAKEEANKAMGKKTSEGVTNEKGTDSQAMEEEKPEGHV
The experiment in a line: competitive fluorescence polarization assay, FKBP51. Type of test: binding. The procedure:
(§1) Affinity determination by competitive fluorescence polarization assay. The synthesized tricyclic sulfonamides were tested for their binding affinities to human FKBPs (FKBP12 and FKBP51) by the fluorescence polarization assay (Table 1).

The target of test [2] is T2, FKBP12 (Homo sapiens, UniProt P62942). The test can be described thus: competitive fluorescence polarization assay, FKBP12. The class given is binding. The method, then:
as §1

In test [3] the target is T1, FKBP51. The experiment in a line: nanoBRET assay, intracellular FKBP51 occupancy in HEK293T cells. Type of test: cell-based. Conditions: for IC50: intracellular occupancy; for displacement of the tracer for FKBP51 (potency in words): nanoBRET. The method, then: (§2) For compounds 31 and 32 target engagement of FKBP12 and FKBP51 in the HEK293T cells was tested (Table 2).

In test [4] the target is T2, FKBP12. The test can be described thus: nanoBRET assay, intracellular FKBP12 occupancy in HEK293T cells. Type of test: cell-based. Conditions: for IC50: intracellular occupancy. The procedure:
as §2

T2 sequence (P62942 whole entry): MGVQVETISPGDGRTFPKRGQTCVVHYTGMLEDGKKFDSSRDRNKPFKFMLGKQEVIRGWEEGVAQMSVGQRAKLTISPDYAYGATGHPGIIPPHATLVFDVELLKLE

With `C=C[C@@H]1C2CCCC(C(=O)N3[C@H](C(=O)N(C)C)CC[C@@H]13)N2S(=O)(=O)c1cc(Cl)cc(Cl)c1` (stereo partly drawn) [Compound 23], the Ki was 121 ± 8 nM on FKBP51 [1] and 2.3 ± 0.2 nM on FKBP12 [2].

Take `C=C[C@@H]1C2CCCC(C(=O)N3[C@H](C(=O)N4CCC(C)CC4)CC[C@@H]13)N2S(=O)(=O)c1cc(Cl)cc(Cl)c1` (stereo partly drawn) [Compound 25]: the Ki worked out at 0.93 ± 0.2 nM on FKBP51 [1] and 0.067 ± 0.01 nM on FKBP12 [2].

As to `C=C[C@H]1[C@@H]2CC[C@@H](c3ccccn3)N2C(=O)C2CCC[C@@H]1N2S(=O)(=O)c1cc(Cl)cc(Cl)c1` [Compound 30], the values for the Ki on FKBP51 [1] and on FKBP12 [2] were 464 ± 79 nM and 12 ± 1.6 nM, respectively.

For the compound `CCNC(=O)[C@@H]1CC[C@H]2[C@H](CO)C3CCCC(C(=O)N12)N3S(=O)(=O)c1cc(Cl)cc(Cl)c1` (stereo in doubt) [Compound 31], the Ki on FKBP51 [1] turned out to be 0.76 ± 0.2 nM; at FKBP12 [2], 0.013 ± 0.004 nM. Moreover, the IC50 is 8.5 ± 0.6 nM on FKBP51 [3] and 3.9 ± 0.3 nM against FKBP12 [4]. Also, on FKBP51 [3], the “displacement of the tracer for FKBP51 (potency in words)” value is “low nanomolar potency”.

In the case of `C=C[C@@H]1C2CCCC(C(=O)N3[C@H](C(=O)O)CC[C@@H]13)N2S(=O)(=O)c1cc(Cl)cc(Cl)c1` (stereo partly drawn) [Compound 3], the values for the Ki on FKBP51 [1] and at FKBP12 [2] were 698 ± 49 nM and 12 ± 1.7 nM, respectively.

On to `C=C[C@@H]1C2CCCC(C(=O)N3[C@H](C(=O)OC)CC[C@@H]13)N2S(=O)(=O)c1cc(Cl)cc(Cl)c1` (stereo partly drawn) [Compound 20], for which the Ki turned out to be 76 ± 10 nM at FKBP51 [1] and 1 ± 0.1 nM on FKBP12 [2].

On to `CC1CCN(C(=O)[C@@H]2CC[C@H]3[C@H](CO)C4CCCC(C(=O)N23)N4S(=O)(=O)c2cc(Cl)cc(Cl)c2)CC1` (stereo in doubt) [Compound 32], for which the Ki was 0.72 ± 0.2 nM at FKBP51 [1] and 0.019 ± 0.007 nM at FKBP12 [2]. The IC50 against FKBP51 [3] came out at 3.3 ± 0.3 nM; on FKBP12 [4] it was 0.49 ± 0.04 nM. For the same compound, the “displacement of the tracer for FKBP51 (potency in words)” value at FKBP51 [3] is on record as “low nanomolar potency”. In addition, the “competition with the tracer for FKBP12 (potency in words)” value at FKBP12 [4] (nanoBRET) is recorded as “subnanomolar potency”.

In the case of `C=C[C@@H]1C2CCCC(C(=O)N3[C@H](C(=O)N4CCN(C)CC4)CC[C@@H]13)N2S(=O)(=O)c1cc(Cl)cc(Cl)c1` (stereo partly drawn) [Compound 26], the Ki came to 11 ± 0.7 nM at FKBP51 [1] and 0.16 ± 0.018 nM at FKBP12 [2].

Take `C=C[C@@H]1C2CCCC(C(=O)N3[C@H](C(=O)NC)CC[C@@H]13)N2S(=O)(=O)c1cc(Cl)cc(Cl)c1` (stereo partly drawn) [Compound 22]: the Ki amounted to 7.7 ± 0.9 nM on FKBP51 [1] and 0.32 ± 0.04 nM on FKBP12 [2].

With `C=C[C@@H]1C2CCCC(C(=O)N3[C@H](C(N)=O)CC[C@@H]13)N2S(=O)(=O)c1cc(Cl)cc(Cl)c1` (stereo partly drawn) [Compound 21], the Ki at FKBP51 [1] came out at 18 ± 3 nM; at FKBP12 [2], 0.48 ± 0.08 nM.

Turning to `C=C[C@@H]1C2CCCC(C(=O)N3[C@H](C(=O)NCC)CC[C@@H]13)N2S(=O)(=O)c1cc(Cl)cc(Cl)c1` (stereo partly drawn) [Compound 24], the Ki on FKBP51 [1] stood at 1.1 ± 0.4 nM; on FKBP12 [2], 0.043 ± 0.01 nM.

As for `C=C[C@@H]1C2CCCC(C(=O)N3[C@H](C(=O)N4C[C@@H]5C[C@H]4CN5)CC[C@@H]13)N2S(=O)(=O)c1cc(Cl)cc(Cl)c1` [Compound 28], the Ki was 52 ± 6 nM at FKBP51 [1] and 0.72 ± 0.1 nM at FKBP12 [2].

In the case of `C=C[C@@H]1C2CCCC(C(=O)N3[C@H](C(=O)N4C[C@@H]5C[C@H]4CN5C)CC[C@@H]13)N2S(=O)(=O)c1cc(Cl)cc(Cl)c1` [Compound 27], the Ki on FKBP51 [1] was determined as 17 ± 1.7 nM; at FKBP12 [2], 0.55 ± 0.07 nM.

The record behind these values is patent US20250313562A1, “Substituted tricyclic ligands for FK506-binding proteins for treatment of diseases” (Technische Universität Darmstadt, priority 2024, published 2025).
